Test results reported in patent US9868728B2, “Quinazoline derivatives, compositions, and uses related thereto” (Emory University, priority 2010, dated 2018).

Target: T1, NOX2 (Homo sapiens, UniProt P04839)
T1 construct: isolated plasma membranes from human neutrophils as a source for Nox2-p22phox; from tissue; host or cells: Plasma membranes of human neutrophils (Nox2-p22phox); cytosolic factors recombinant from E. coli
T1 sequence (P04839 2-570 limits assumed): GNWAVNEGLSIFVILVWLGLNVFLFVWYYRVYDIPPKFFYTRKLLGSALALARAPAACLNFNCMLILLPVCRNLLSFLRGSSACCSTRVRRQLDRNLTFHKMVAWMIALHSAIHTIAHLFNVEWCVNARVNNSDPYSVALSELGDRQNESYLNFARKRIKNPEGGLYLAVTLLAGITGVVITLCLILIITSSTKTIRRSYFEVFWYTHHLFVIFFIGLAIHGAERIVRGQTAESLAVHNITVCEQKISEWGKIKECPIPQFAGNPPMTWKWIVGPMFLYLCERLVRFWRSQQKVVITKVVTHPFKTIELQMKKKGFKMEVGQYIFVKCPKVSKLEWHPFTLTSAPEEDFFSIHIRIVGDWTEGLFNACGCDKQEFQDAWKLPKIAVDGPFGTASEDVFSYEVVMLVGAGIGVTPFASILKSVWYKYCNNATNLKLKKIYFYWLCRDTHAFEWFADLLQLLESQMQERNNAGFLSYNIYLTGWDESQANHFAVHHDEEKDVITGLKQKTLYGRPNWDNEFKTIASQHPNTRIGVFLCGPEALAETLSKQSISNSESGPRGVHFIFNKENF
T1 sequence (P13498 2-195 partner limits assumed): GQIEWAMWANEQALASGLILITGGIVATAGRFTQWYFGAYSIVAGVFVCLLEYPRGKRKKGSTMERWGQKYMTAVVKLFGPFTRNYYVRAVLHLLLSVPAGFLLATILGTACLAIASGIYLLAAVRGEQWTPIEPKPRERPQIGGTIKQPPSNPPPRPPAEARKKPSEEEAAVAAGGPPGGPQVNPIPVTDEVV
Assay: Nox2 cell-free assay (LO12 luminescence)
Type: biochemical
Details: Nox2 cell-free system; for IC50: read-out: NOX2 IC50 (concentration giving half-maximal inhibition); for Emax: read-out: % inhibition (maximum inhibition achieved at a very high concentration of the compound)
Method: The following compounds were tested according to the procedures provided in the experimental section. Assays were carried out using the Nox2 cell-free system. The IC50 value is the concentration giving half-maximal inhibition, while the “% inhibition” shown in parentheses is the maximum inhibition achieved at a very high concentration of the compound. 100% refers to complete inhibition within experimental error of the assay.
In certain assays a Cell-Free recombinant NOX-2 system (consisting of isolated plasma membranes from human neutrophils as a source for Nox2-p22phox, supplemented with recombinant p47phox, p67phox and Rac1Q61L (activated Rac), expressed in and isolated from of E. coli. LO12 luminescence was used as a readout to monitor enzymatic activity.
Plasma membranes were prepared from human neutrophils, which express large amounts of Nox2 and stored at −80 C until use. Membranes are mixed with recombinant, purified cytosolic regulatory proteins (p67Np47 chimera, and constitutively active Rac1 mutant Q61) and FAD, along with varying concentrations of compound, and LO12, which luminesces when it reacts with ROSvi. The reaction is started by addition of NADPH and SDS (an artificial stimulus for Nox2). See Curnutte et al., (1987) J. Biol. Chem. 262: 6450-6452.

Row | SMILES | IC50 | Emax (value in parentheses) | NOX2 IC50 (concentration giving half-maximal inhibition) | % inhibition (maximum inhibition achieved at a very high concentration of the compound) (value in parentheses)
1 | COc1ccc(N(C)CCCNC(=O)c2cc(F)ccc2N)cc1 [TG6-30-2] | 200 nM |  |  | 
2 | COc1ccc(N(C)CCCn2c(=S)[nH]c3ccc(F)cc3c2=O)cc1 [TG6-30] | 100 nM | 50% |  | 
3 | CN(C)CCCn1c(=O)[nH]c2ccccc2c1=O [TG6-31] |  |  | Not active | 
4 | CN1CCC(n2c(=S)[nH]c3ccccc3c2=O)CC1 [TG6-33-2] | 1000 nM | 40% |  | 
5 | CN(C)CCn1c(=S)[nH]c2ccccc2c1=O [TG6-35-2] | 4000 nM | 50% |  | 
6 | COc1ccc(-c2csc(NC(=O)CSc3nc4ccccc4c(=O)n3CCCN(C)C)n2)cc1 [TG6-36-2] | 11000 nM | 95% |  | 
7 | CN(C)CCCn1c(SCC(=O)Nc2nc(-c3ccc(Br)cc3)cs2)nc2ccccc2c1=O [TG6-37-2] | 6000 nM |  |  | 95%
8 | CN(C)CCCCCn1c(=S)[nH]c2ccccc2c1=O [TG6-41] | 5000 nM | 50% |  | 
9 | CCc1ccc(NC(=O)CSc2nc3ccccc3c(=O)n2CCCN(C)C)cc1 [TG6-43] | > 10000 nM | 60% |  | 
10 | CN(C)CCCn1c(SCC(=O)Nc2nc(-c3cccc(F)c3)cs2)nc2ccccc2c1=O [TG6-48] |  | 95% |  | 
11 | CCN(CC)CCn1c(SCC(=O)Nc2nc(-c3cccc(Br)c3)cs2)nc2ccccc2c1=O [TG6-49] | 2000 nM | 30% |  | 
12 | O=c1c2ccccc2[nH]c(=S)n1CCN1CCCC1 [TG6-52] | 2000 nM | 80% |  | 
13 | O=c1c2ccccc2[nH]c(=S)n1CCN1CCCCC1 [TG6-53] | 1500 nM | 90% |  | 
14 | O=c1c2ccccc2[nH]c(=S)n1CCCN1CCOCC1 [TG6-54] | 2000 nM | 80% |  | 
15 | CN1CCN(CCCn2c(=S)[nH]c3ccccc3c2=O)CC1 [TG6-55] | 3000 nM | 60% |  | 
16 | CCCN(CCC)CCn1c(=S)[nH]c2ccccc2c1=O [TG6-56] |  |  | Not active | 
17 | CCN(CC)CCn1c(=S)[nH]c2ccc(Cl)cc2c1=O [TG6-57] | 6000 nM | 80% |  | 

Row | SMILES | IC50 | Emax (value in parentheses) | NOX2 IC50 (concentration giving half-maximal inhibition) | % inhibition (maximum inhibition achieved at a very high concentration of the compound) (value in parentheses)
18 | CN(C)CCCn1c(SCC(=O)Nc2nc(-c3cccc(Br)c3)cs2)nc2ccc(Cl)cc2c1=O [TG6-58] | 5000 nM | 90% |  | 
19 | CSc1nc2ccc(Cl)cc2c(=O)n1CCC[N+](C)(C)C [TG6-59] | 3000 nM | 75% |  | 
20 | CN(C)CCCn1c(=S)[nH]c2cc(Cl)ccc2c1=O [TG6-62] | 5000 nM | 90% |  | 
21 | COc1cc2[nH]c(=S)n(CCCN(C)C)c(=O)c2cc1OC [TG6-63] | 2000 nM | 60% |  | 
22 | CN(C)CCCn1c(=S)[nH]c2cc(F)c(F)cc2c1=O [TG6-64] | 1000 nM | 60% |  | 
23 | CN(C)CCCn1c(=S)[nH]c2c(Cl)cc(Cl)cc2c1=O [TG6-65] |  |  | Not active | 
24 | O=c1c2cc(Cl)ccc2[nH]c(=S)n1CCN1CCCCC1 [TG6-66] | 1500 nM | 50% |  | 
25 | CSc1nc2ccccc2c(=O)n1CCC[N+](C)(C)C [TG6-67] | 1500 nM | 95% |  | 
26 | CN(C)CCCn1c(SC(=O)N2CCN(C)CC2)nc2ccccc2c1=O [TG6-71] |  |  | Not active | 
27 | CC(Sc1nc2ccccc2c(=O)n1CCCN(C)C)C(=O)Nc1nc(-c2cccc(Br)c2)cs1 (centres unmarked) [TG6-73] | > 20000 nM | 50% |  | 
28 | CN(C)CCCn1c(OCC(=O)N2CCCCC2)nc2ccccc2c1=O [TG6-74] | > 20000 nM |  |  | 
29 | CN(C)CCCn1c(OCC(=O)N2CCOCC2)nc2ccccc2c1=O [TG6-76] | > 20000 nM |  |  | 
30 | CN(C)CCCn1c(=S)[nH]c2ccc(F)cc2c1=O [TG6-79] | 1500 nM | 60% |  | 
31 | O=C(CSc1nc2ccccc2c(=O)n1CCN1CCCCC1)Nc1nc(-c2cccc(Br)c2)cs1 [TG6-81] | 1500 nM | 70% |  | 
32 | O=C(CSc1nc2ccccc2c(=O)n1CCCN1CCOCC1)Nc1nc(-c2cccc(Br)c2)cs1 [TG6-82] |  |  | Not active | 
33 | CCSc1nc2ccccc2c(=O)n1CCCN1CCOCC1 [TG6-99-1] |  |  | Not active | 
